Source: patent publication US8802353B2, “Compound for resist and radiation-sensitive composition specification” (Mitsubishi Gas Chemical Company, Inc., priority 2004, dated 2014)

Tests used:
Assay type in all cases: physicochemical
[1] = Glass transition temperature, crystallization temperature and quantity of crystallization heat (DSC); conditions: for Glass transition temperature: 20° C./min, nitrogen gas flow; for Glass transition temperature-Crystallization temperature: rating of the difference
Experimental: A sample (about 10 mg) placed in a non-sealed aluminum container was heated to a temperature higher than the melting point at a temperature rising rate of 20° C./min in a nitrogen gas flow (50 ml/min). After being rapidly cooled, the sample was again heated to a temperature higher than the melting point at a temperature rising rate of 20° C./min in a nitrogen gas flow (30 ml/min). After being rapidly cooled, the sample was again heated to 400° C. at a temperature rising rate of 20° C./min in a nitrogen gas flow (30 ml/min), to conduct a differential scanning calorimetric analysis using DSC/TA-50WS manufactured by Shimadzu Corporation. The middle point of the region at which the base line turned discontinuous (the point at which the specific heat reduced to half) was taken as the glass transition temperature (Tg) and the temperature of the exothermic peak after the discontinuous region was taken as the crystallization temperature. The quantity of crystallization heat was determined by the area of the region which was surrounded by the exothermic peak and the base line. The sample was rated A when meeting Tg≧130° C., and rated C when meeting Tg≦130° C. Also, the sample was rated A when meeting (glass transition temperature)−(crystallization temperature)≧70° C., and rated C when meeting (glass transition temperature)-(crystallization temperature)<70° C.

[2] = Ultraviolet-visible absorption spectra, absorptivity coefficient at 248 nm; conditions: 0.01 g/L methanol solution
Experimental: From the ultraviolet-visible absorption spectra of a 0.01 g/L methanol solution of each of Compounds 103, 105 and 108 measured by an autographic spectrophotometer “UV-3100PC” manufactured by Shimadzu Corporation, the absorptivity coefficient at 248 nm of each compound was determined. The absorptivity coefficient was 43.4 L/(cm·g) for Compound 103, 47.4 L/(cm·g) for Compound 105, and 16.9 L/(cm·g) for Compound 108. The absorptivity coefficient is sufficiently larger than 15 L/(cm·g) in any of the compounds, to indicate that the compounds, particularly Compounds 103 and 105, are useful as the raw material of the compound B for forming shade masks. The compounds B produced from these compounds and the radiation-sensitive composition containing such compounds B also have a high absorptivity and are useful for forming shade masks.

[3] = Solubility in safety solvent; conditions: 23° C.; PGMEA, PGME, ethyl lactate, butyl acetate, methyl 3-methoxypropionate, ethyl propionate
Experimental: The solubility of the compound B was tested at 23° C. using propylene glycol monomethyl ether acetate, propylene glycol monomethyl ether, ethyl lactate, butyl acetate, methyl 3-methoxypropionate and ethyl propionate. The sample was rated A when dissolved in any one of the above solvents in a concentration of 5 wt % or more, rated B when dissolved in a concentration of 0.1 to 5 wt %, and rated C when dissolved only in a concentration of less than 0.1 wt %.

[4] = Film-forming property (spin-coated film on silicon wafer); set-up: key: rated C when the film was clouded or its surface was roughened; rated B when the film was partly clouded or roughened; rated A when the film had a good surface flatness without causing clouding; conditions: 3% by weight solution spin-coated, 110° C. 3 min
Text: A 3% by weight solution of the compound B or a mixture (compound B and polyphenol A) in PGME/PE (1/2 by weight) or acetone when not dissolved in PGME/PE was spin-coated on a silicon wafer which had been surface-treated with a silane coupling agent, to form a resist film with a thickness of about 0.05 μm.

[5] = Adhesion to silicon substrate; set-up: key: rated A when the film was not peeled from the silicon wafer; rated C when peeled off; conditions: silicon wafer surface-treated with silane coupling agent
Experimental: The resist film formed in (2-2) was tested for its adhesion to the silicon wafer which was surface-treated with a silane coupling agent. The sample was rated A when the film was not peeled from the silicon wafer, and rated C when peeled off.

Structure (SMILES) | Glass transition temperature Rating ([1]; DSC) | Glass transition temperature ([1]; DSC) [°C] | Crystallization temperature ([1]; DSC, exothermic peak) [°C] | absorptivity coefficient at 248 nm [2] [L/cm/g] | film-forming property [4] | Adhesion to silicon substrate [5] | Glass transition temperature-Crystallization temperature [1] | Solubility to safety solvent [3]
Cc1cc(O)c(C(C)C)cc1C(c1ccc2cc(C(c3cc(C(C)C)c(O)cc3C)c3cc(C(C)C)c(O)cc3C)ccc2c1)c1cc(C(C)C)c(O)cc1C [Compound 103] | C (rated C when meeting Tg≦130° C.) | 116 | 190 | 43.4 |  |  | A (rated A when meeting (glass transition temperature)−(crystallization temperature)≧70° C.) | 
Cc1cc(C(c2ccc3ccc(C(c4cc(C)c(O)c(C)c4C)c4cc(C)c(O)c(C)c4C)cc3c2)c2cc(C)c(O)c(C)c2C)c(C)c(C)c1O [Compound 105] | A (rated A when meeting Tg≧130° C.) | 156 |  | 47.4 |  |  | A (rated A when meeting (glass transition temperature)−(crystallization temperature)≧70° C.) | 
Cc1cc(C(c2cc(C(c3cc(C)c(O)c(C)c3C)c3cc(C)c(O)c(C)c3C)cc(C(c3cc(C)c(O)c(C)c3C)c3cc(C)c(O)c(C)c3C)c2)c2cc(C)c(O)c(C)c2C)c(C)c(C)c1O [Compound 108] | A (rated A when meeting Tg≧130° C.) | 125 |  | 16.9 |  |  | A (rated A when meeting (glass transition temperature)−(crystallization temperature)≧70° C.) | 
CCOC(C)Oc1cc(C)c(C(c2ccc3cc(C(c4cc(C)c(O)cc4C)c4cc(C)c(O)cc4C)ccc3c2)c2cc(C)c(O)cc2C)cc1C (stereo not shown) [Compound 109] |  |  |  |  | A | A |  | A (rated A when dissolved in any one of the above solvents in a concentration of 5 wt % or more)
Cc1cc(C(c2ccc3cc(C(c4cc(C)c(O)cc4C)c4cc(C)c(OC(C)OC5CCCCC5)cc4C)ccc3c2)c2cc(C)c(O)cc2C)c(C)cc1O (stereo not shown) [Compound 110] |  |  |  |  | A | A |  | A (rated A when dissolved in any one of the above solvents in a concentration of 5 wt % or more)
CCOC(C)Oc1c(C)cc(C(c2ccc3cc(C(c4cc(C)c(O)c(C)c4C)c4cc(C)c(O)c(C)c4C)ccc3c2)c2cc(C)c(O)c(C)c2C)c(C)c1C (stereo not shown) [Compound 111] |  |  |  |  | A | A |  | A (rated A when dissolved in any one of the above solvents in a concentration of 5 wt % or more)
Cc1cc(C(c2ccc3cc(C(c4cc(C)c(O)c(C)c4C)c4cc(C)c(OC(C)OC5CCCCC5)c(C)c4C)ccc3c2)c2cc(C)c(O)c(C)c2C)c(C)c(C)c1O (stereo not shown) [Compound 112] |  |  |  |  | A | A |  | A (rated A when dissolved in any one of the above solvents in a concentration of 5 wt % or more)
Cc1cc(O)c(C(C)C)cc1C(c1ccc2cc(C(c3cc(C(C)C)c(O)cc3C)c3cc(C(C)C)c(OC(C)OC4CCCCC4)cc3C)ccc2c1)c1cc(C(C)C)c(O)cc1C (stereo not shown) [Compound 113] |  |  |  |  | A | A |  | A (rated A when dissolved in any one of the above solvents in a concentration of 5 wt % or more)

Second part, led by results:

Glass transition temperature Rating ([1]; DSC) | Glass transition temperature ([1]; DSC) [°C] | Crystallization temperature ([1]; DSC, exothermic peak) [°C] | absorptivity coefficient at 248 nm [2] [L/cm/g] | film-forming property [4] | Adhesion to silicon substrate [5] | Structure (SMILES) | Glass transition temperature-Crystallization temperature [1] | Solubility to safety solvent [3]
 |  |  |  | A | A | Cc1cc(C(c2ccc3ccc(C(c4cc(C)c(O)c(C)c4C)c4cc(C)c(OC(C)OC5CCCCC5)c(C)c4C)cc3c2)c2cc(C)c(O)c(C)c2C)c(C)c(C)c1O (stereo not shown) [Compound 114] |  | A (rated A when dissolved in any one of the above solvents in a concentration of 5 wt % or more)
 |  |  |  | A | A | Cc1cc(C(c2ccc(-c3cccc(-c4ccc(C(c5cc(C)c(O)cc5C)c5cc(C)c(OC(C)OC6CCCCC6)cc5C)cc4)c3)cc2)c2cc(C)c(O)cc2C)c(C)cc1O (stereo not shown) [Compound 115] |  | A (rated A when dissolved in any one of the above solvents in a concentration of 5 wt % or more)
 |  |  |  | A | A | Cc1cc(C(c2ccc(-c3ccc(-c4ccc(C(c5cc(C)c(O)cc5C)c5cc(C)c(OC(C)OC6CCCCC6)cc5C)cc4)cc3)cc2)c2cc(C)c(O)cc2C)c(C)cc1O (stereo not shown) [Compound 116] |  | A (rated A when dissolved in any one of the above solvents in a concentration of 5 wt % or more)
 |  |  |  | A | A | Cc1cc(C(c2cc(C(c3cc(C)c(OC(=O)OC(C)(C)C)c(C)c3C)c3cc(C)c(OC(=O)OC(C)(C)C)c(C)c3C)cc(C(c3cc(C)c(OC(=O)OC(C)(C)C)c(C)c3C)c3cc(C)c(OC(=O)OC(C)(C)C)c(C)c3C)c2)c2cc(C)c(OC(=O)OC(C)(C)C)c(C)c2C)c(C)c(C)c1OC(=O)OC(C)(C)C [Compound 117] |  | A (rated A when dissolved in any one of the above solvents in a concentration of 5 wt % or more)
 |  |  |  | A | A | Cc1cc(C(c2ccc3cc(C(c4cc(C)c(O)cc4C)c4cc(C)c(OC(C)OC5CCCCC5)cc4C)ccc3c2)c2cc(C)c(O)cc2C)c(C)cc1O (stereo not shown) [Compound 118] |  | A (rated A when dissolved in any one of the above solvents in a concentration of 5 wt % or more)
 |  |  |  | A | A | Cc1cc(C(c2cc(C(c3cc(C)c(O)c(C)c3C)c3cc(C)c(O)c(C)c3C)cc(C(c3cc(C)c(O)c(C)c3C)c3cc(C)c(OC(C)OC4CCCCC4)c(C)c3C)c2)c2cc(C)c(O)c(C)c2C)c(C)c(C)c1O (stereo not shown) [Compound 119] |  | A (rated A when dissolved in any one of the above solvents in a concentration of 5 wt % or more)
 |  |  |  | A | A | CC(C)(C)OC(=O)Oc1ccc(C(c2ccc(OC(=O)OC(C)(C)C)cc2)c2ccc(OC(=O)OC(C)(C)C)cc2)cc1 [Compound 203, reference compound] |  | C (rated C when dissolved only in a concentration of less than 0.1 wt %)
 |  |  |  | B | A | CC(C)(C)OC(=O)Oc1ccc(-c2cc(-c3ccc(OC(=O)OC(C)(C)C)cc3)cc(-c3ccc(OC(=O)OC(C)(C)C)cc3)c2)cc1 [Compound 204, reference compound] |  | A (rated A when dissolved in any one of the above solvents in a concentration of 5 wt % or more)
 |  |  |  | A | A | CCOC(C)Oc1ccc(C(C)(c2ccc(O)c(C)c2)c2ccc3ccccc3c2)cc1C (stereo not shown) [Compound 207, reference compound] |  | A (rated A when dissolved in any one of the above solvents in a concentration of 5 wt % or more)
 |  |  |  | A | A | Cc1cc(C(C)(c2ccc(OC(C)OC3CCCCC3)c(C)c2)c2ccc3ccccc3c2)ccc1O (stereo not shown) [Compound 208, reference compound] |  | A (rated A when dissolved in any one of the above solvents in a concentration of 5 wt % or more)
